Patent publication US8039486B2, “Indole, azaindole and related heterocyclic N-substituted piperazine derivatives” (priority 2003, dated 2011)

Tested on: HIV-1 single-round infectious reporter virus
Experiment: Single-round infectious HIV-1 luciferase reporter virus infection of HeLa CD4 cells
Assay type: cell-based
Settings: Human immunodeficiency virus 1, HeLa, 72 h, read-out: EC50 Group from Table 1
Protocol: • Virus production—Human embryonic Kidney cell line, 293, was propagated in Dulbecco's Modified Eagle Medium (Invitrogen, Carlsbad, Calif.) containing 10% fetal Bovine serum (FBS, Sigma, St. Louis, Mo.). • Virus infection—Human epithelial cell line, HeLa, expressing the HIV-1 receptor CD4 was propagated in Dulbecco's Modified Eagle Medium (Invitrogen, Carlsbad, Calif.) containing 10% fetal Bovine serum (FBS, Sigma, St. Louis, Mo.) and supplemented with 0.2 mg/mL Geneticin (Invitrogen, Carlsbad, Calif.). Virus-Single-round infectious reporter virus was produced by co-transfecting human embryonic Kidney 293 cells with an HIV-1 envelope DNA expression vector and a proviral cDNA containing an envelope deletion mutation and the luciferase reporter gene inserted in place of HIV-1 nef sequences (Chen et al, Ref 41). Transfections were performed using lipofectAMINE PLUS reagent as described by the manufacturer (Invitrogen, Carlsbad, Calif.). Experiment • 1. HeLa CD4 cells were plated in 96 well plates at a cell density of 1×10^4 cells per well in 100 μl Dulbecco's Modified Eagle Medium containing 10% fetal Bovine serum and incubated overnight. • 2. Compound was added in a 2 μl dimethylsulfoxide solution, so that the final assay concentration would be ≦10 μM. • 3. 100 μl of single-round infectious reporter virus in Dulbecco's Modified Eagle Medium was then added to the plated cells and compound at an approximate multiplicity of infection (MOI) of 0.01, resulting in a final volume of 200 μl per well. • 4. Virally-infected cells were incubated at 37 degrees Celsius, in a CO2 incubator, and harvested 72 h after infection. • 5. Viral infection was monitored by measuring luciferase expression from viral DNA in the infected cells using a luciferase reporter gene assay kit, as described by the manufacturer (Roche Molecular Biochemicals, Indianapolis, Ind.). Infected cell supernatants were removed and 50 μl of lysis buffer was added per well. After 15 minutes, 50 μl of freshly-reconstituted luciferase assay reagent was added per well. Luciferase activity was then quantified by measuring luminescence using a Wallac microbeta scintillation counter. • 6. The percent inhibition for each compound was calculated by quantifying the level of luciferase expression in cells infected in the presence of each compound as a percentage of that observed for cells infected in the absence of compound and subtracting such a determined value from 100. • 7. An EC50 provides a method for comparing the antiviral potency of the compounds of this invention. The effective concentration for fifty percent inhibition (EC50) was calculated with the Microsoft Excel Xlfit curve fitting software. For each compound, curves were generated from percent inhibition calculated at 10 different concentrations by using a four paramenter logistic model (model 205). Table 1 is the key for the data in Table 2. Results

Row | Structure (SMILES) | EC50 [nM]
1 | COc1ccc(-n2cncn2)c2[nH]cc(C(=O)C(=O)N3CCN(c4nccc5ccccc45)CC3)c12 [Example 31] | < 1000
2 | COc1ccc(C#N)c2[nH]cc(C(=O)C(=O)N3CCN(c4nccc5ccccc45)CC3)c12 [Example 43] | < 1000
3 | COc1ccc(-c2nc(CC#N)n[nH]2)c2[nH]cc(C(=O)C(=O)N3CCN(c4nccc5ccccc45)CC3)c12 [Example 24] | < 1000
4 | COC(=O)Cc1n[nH]c(-c2ccc(OC)c3c(C(=O)C(=O)N4CCN(c5nccc6ccccc56)CC4)c[nH]c23)n1 [Example 32] | < 1000
5 | COc1cnc(-n2nccn2)c2[nH]cc(C(=O)C(=O)N3CCN(c4ncnc5ccccc45)CC3)c12 [Example 51] | < 1000
6 | COc1ccc(C(=N)NNC(=O)CC#N)c2[nH]cc(C(=O)C(=O)N3CCN(c4nccc5ccccc45)CC3)c12 [Example 25] | < 1000
7 | COc1cnc(-n2cnc(C)n2)c2[nH]cc(C(=O)C(=O)N3CCN(c4ccnc5ccccc45)CC3)c12 [Example 39] | < 1000
8 | O=C(C(=O)N1CCN(c2ncnc3ccccc23)CC1)c1c[nH]c2c(-c3ccncc3)ncc(F)c12 [Example 79] | 1000 to 5000
9 | COc1cnc(Br)c2[nH]cc(C(=O)C(=O)N3CCN(c4ncnc5ccccc45)CC3)c12 [Example 53] | < 1000
10 | O=C(C(=O)N1CCN(c2nncc3ccccc23)CC1)c1c[nH]c2c(-c3ccccn3)ncc(F)c12 [Example 77] | < 1000
11 | COc1nnc(N2CCN(C(=O)C(=O)c3c[nH]c4c(-n5cnc(C)n5)ncc(OC)c34)CC2)c2ccccc12 [Example 57] | < 1000
12 | COc1ncc(OC)c2c(C(=O)C(=O)N3CCN(c4ncnc5ccccc45)CC3)c[nH]c12 [Example 9] | < 1000
13 | O=C(C(=O)N1CCN(c2nccc3ccccc23)CC1)c1c[nH]c2c(-c3nccs3)ccnc12 [Example 38] | < 1000
14 | COc1cnc(C(N)=O)c2[nH]cc(C(=O)C(=O)N3CCN(c4nncc5ccccc45)CC3)c12 [Example 64] | < 1000
15 | COC(=O)Cn1nnc(-c2ccc(OC)c3c(C(=O)C(=O)N4CCN(c5nccc6ccccc56)CC4)c[nH]c23)n1 [Example 26] | < 1000
16 | COc1ccc(-c2nc(CC(N)=O)n[nH]2)c2[nH]cc(C(=O)C(=O)N3CCN(c4nccc5ccccc45)CC3)c12 [Example 35] | < 1000
17 | COc1cnc(Br)c2[nH]cc(C(=O)C(=O)N3CCN(c4nncc5ccccc45)CC3)c12 [Example 62] | < 1000
18 | O=C(C(=O)N1CCN(c2ncnc3ccccc23)CC1)c1c[nH]c2c(-c3cc[nH]n3)ncc(F)c12 [Example 94] | < 1000
19 | CCOC(=O)c1ccc(OC)c2c(C(=O)C(=O)N3CCN(c4nccc5ccccc45)CC3)c[nH]c12 [Example 13] | < 1000
20 | O=C(C(=O)N1CCN(c2ncnc3ccccc23)CC1)c1c[nH]c2c(-c3ncon3)ccc(F)c12 [Example 3] | < 1000

Row | Structure (SMILES) | EC50 [nM]
21 | O=C(C(=O)N1CCN(c2ncnc3ccccc23)CC1)c1c[nH]c2c(-c3cn[nH]c3)ncc(F)c12 [Example 95] | < 1000
22 | COc1cnc(-n2cnc(C)n2)c2[nH]cc(C(=O)C(=O)N3CCN(c4ncnc5ccccc45)CC3)c12 [Example 46] | < 1000
23 | COc1ccc(-n2ccnc2)c2[nH]cc(C(=O)C(=O)N3CCN(c4nccc5ccccc45)CC3)c12 [Example 5] | < 1000
24 | COc1ccc(C#N)c2[nH]cc(C(=O)C(=O)N3CCN(c4ncnc5ccccc45)CC3)c12 [Example 44] | < 1000
25 | COc1cnc(-n2cncn2)c2[nH]cc(C(=O)C(=O)N3CCN(c4nccc5ccccc45)CC3)c12 [Example 36] | < 1000
26 | COc1ccc(C(=N)NNC(=O)c2cccnc2)c2[nH]cc(C(=O)C(=O)N3CCN(c4nccc5ccccc45)CC3)c12 [Example 23] | < 1000
27 | O=C(C(=O)N1CCN(c2nncc3ccccc23)CC1)c1c[nH]c2c(Br)ncc(F)c12 [Example 92] | < 1000
28 | COc1ccc(-c2cnccn2)c2[nH]cc(C(=O)C(=O)N3CCN(c4nccc5ccccc45)CC3)c12 [Example 30] | < 1000
29 | O=C(C(=O)N1CCN(c2nncc3ccccc23)CC1)c1c[nH]c2c(-c3cnccn3)ncc(F)c12 [Example 78] | < 1000
30 | O=C(C(=O)N1CCN(c2ncnc3ccccc23)CC1)c1c[nH]c2c(-c3cncnc3)ncc(F)c12 [Example 81] | < 1000
31 | COc1ccc(-c2ncn[nH]2)c2[nH]cc(C(=O)C(=O)N3CCN(c4nccc5ccccc45)CC3)c12 [Example 21] | < 1000
32 | COc1cnc(-n2cnc(C)n2)c2[nH]cc(C(=O)C(=O)N3CCN(c4nc(C)nc5ccccc45)CC3)c12 [Example 60] | < 1000
33 | O=C(C(=O)N1CCN(c2nccc3ccccc23)CC1)c1c[nH]c2c(-c3ccccn3)ncc(F)c12 [Example 72] | < 1000
34 | O=C(C(=O)N1CCN(c2nncc3ccccc23)CC1)c1c[nH]c2c(-n3ccnn3)ncc(F)c12 [Example 56] | < 1000
35 | COc1cnc(C#N)c2[nH]cc(C(=O)C(=O)N3CCN(c4ncnc5ccccc45)CC3)c12 [Example 45] | < 1000
36 | O=C(C(=O)N1CCN(c2nncc3ccccc23)CC1)c1c[nH]c2c(-c3cn[nH]c3)ncc(F)c12 [Example 93] | < 1000
37 | N#Cc1ncc(F)c2c(C(=O)C(=O)N3CCN(c4nccc5ccccc45)CC3)c[nH]c12 [Example 87] | < 1000
38 | COc1cnc(-n2ccnn2)c2[nH]cc(C(=O)C(=O)N3CCN(c4nncc5ccccc45)CC3)c12 [Example 54] | < 1000
39 | COc1cnc(-n2cncn2)c2[nH]cc(C(=O)C(=O)N3CCN(c4ccnc5ccccc45)CC3)c12 [Example 85] | < 1000
40 | COc1cnc(Cl)c2[nH]cc(C(=O)C(=O)N3CCN(c4ncnc5ccccc45)CC3)c12 [Example 75] | < 1000

Row | Structure (SMILES) | EC50 [nM]
41 | COc1ccc(C(N)=O)c2[nH]cc(C(=O)C(=O)N3CCN(c4nccc5ccccc45)CC3)c12 [Example 12] | < 1000
42 | O=C(C(=O)N1CCN(c2ncnc3ccccc23)CC1)c1c[nH]c2c(-c3ncccn3)ncc(F)c12 [Example 84] | < 1000
43 | COc1ccc(-c2ncon2)c2[nH]cc(C(=O)C(=O)N3CCN(c4nccc5ccccc45)CC3)c12 [Example 17] | < 1000
44 | COc1ccc(-c2nc3ccccc3[nH]2)c2[nH]cc(C(=O)C(=O)N3CCN(c4nccc5ccccc45)CC3)c12 [Example 19] | < 1000
45 | COc1cnc(-c2cncnc2)c2[nH]cc(C(=O)C(=O)N3CCN(c4ncnc5ccccc45)CC3)c12 [Example 80] | < 1000
46 | COc1ccc(-n2cccc2)c2[nH]cc(C(=O)C(=O)N3CCN(c4nccc5ccccc45)CC3)c12 [Example 6] | < 1000
47 | O=C(C(=O)N1CCN(c2nccc3ccccc23)CC1)c1c[nH]c2c(-c3nc(-c4ccccc4)n[nH]3)ncc(F)c12 [Example 88] | < 1000
48 | COc1ccc(/C(N)=N\O)c2[nH]cc(C(=O)C(=O)N3CCN(c4nccc5ccccc45)CC3)c12 [Example 14] | < 1000
49 | COc1cnc(-n2cnc(C)n2)c2[nH]cc(C(=O)C(=O)N3CCN(c4nnc(O)c5ccccc45)CC3)c12 [Example 58] | < 1000
50 | COc1cnc(-n2cnc(C)n2)c2[nH]cc(C(=O)C(=O)N3CCN(c4nc(N)cc5ccccc45)CC3)c12 [Example 65] | < 1000
51 | COc1ccc(Br)c2[nH]cc(C(=O)C(=O)N3CCN(c4nccc5ccccc45)CC3)c12 [Example 4] | < 1000
52 | COc1ccc(-c2nnn(C)n2)c2[nH]cc(C(=O)C(=O)N3CCN(c4nccc5ccccc45)CC3)c12 [Example 16] | < 1000
53 | COc1cnc(-n2cnc(C)n2)c2[nH]cc(C(=O)C(=O)N3CCN(c4ccc5ccccc5n4)CC3)c12 [Example 90] | < 1000
54 | COc1cnc(C(=O)O)c2[nH]cc(C(=O)C(=O)N3CCN(c4ncnc5ccccc45)CC3)c12 [Example 50] | < 1000
55 | O=C(C(=O)N1CCN(c2nc(Cl)cc3ccccc23)CC1)c1c[nH]c2c(-n3ccnn3)ncc(F)c12 [Example 68] | < 1000
56 | CNC(=O)Cc1n[nH]c(-c2ccc(OC)c3c(C(=O)C(=O)N4CCN(c5nccc6ccccc56)CC4)c[nH]c23)n1 [Example 34] | < 1000
57 | COc1cnc(-n2cnc(C(N)=O)n2)c2[nH]cc(C(=O)C(=O)N3CCN(c4ncnc5ccccc45)CC3)c12 [Example 70] | < 1000
58 | N=C(NNC(=O)c1ccccc1)c1ncc(F)c2c(C(=O)C(=O)N3CCN(c4nccc5ccccc45)CC3)c[nH]c12 [Example 89] | < 1000
59 | COc1cnc(C(N)=O)c2[nH]cc(C(=O)C(=O)N3CCN(c4ncnc5ccccc45)CC3)c12 [Example 49] | < 1000
